{
  "source": "PubChem BioAssay (NCI)",
  "test_in_all_cases": "NCI tumour cell line growth inhibition, 48 h",
  "key": {"786-0 renal": {"test_system": "786-0 renal"}, "A498 renal": {"test_system": "A498 renal"}, "BT-549 breast": {"test_system": "BT-549 breast"}, "CCRF-CEM leukemia": {"test_system": "CCRF-CEM leukemia"}, "DU-145 prostate": {"test_system": "DU-145 prostate"}, "EKVX NSCLC": {"test_system": "EKVX NSCLC"}, "HS 578T breast": {"test_system": "HS 578T breast"}, "K-562 leukemia": {"test_system": "K-562 leukemia"}, "MCF7 breast": {"test_system": "MCF7 breast"}, "NCI-H23 lung": {"test_system": "NCI-H23 lung"}, "OVCAR-3 ovarian": {"test_system": "OVCAR-3 ovarian"}, "OVCAR-5 ovarian": {"test_system": "OVCAR-5 ovarian"}, "SF-295 CNS": {"test_system": "SF-295 CNS"}, "SK-MEL-28 melanoma": {"test_system": "SK-MEL-28 melanoma"}, "SN12C renal": {"test_system": "SN12C renal"}, "SNB-75 CNS": {"test_system": "SNB-75 CNS"}, "UACC-257 melanoma": {"test_system": "UACC-257 melanoma"}, "UO-31 renal": {"test_system": "UO-31 renal"}},
  "note": "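Where inhibition never reached the appropriate level, the endpoint shown equals the highest concentration tested. Otherwise, values were interpolated linearly from a five-concentration, 48-hour dose response in 96-well plates. At the TGI there is no net growth.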",
  "data": [
    {"compound": "CC(O)c1cc2c(s1)C(=O)c1c(C(C)O)csc1C2=O", "note": "(centres undefined)", "values": [
      {"measurement": "TGI", "setting": "786-0 renal", "result": 2.08, "unit": "µM"},
      {"measurement": "TGI", "setting": "A498 renal", "result": 0.462, "unit": "µM"},
      {"measurement": "TGI", "setting": "BT-549 breast", "result": 0.378, "unit": "µM"},
      {"measurement": "TGI", "setting": "CCRF-CEM leukemia", "result": 0.492, "unit": "µM"},
      {"measurement": "TGI", "setting": "DU-145 prostate", "result": 0.242, "unit": "µM"},
      {"measurement": "TGI", "setting": "EKVX NSCLC", "result": 1.13, "unit": "µM"},
      {"measurement": "TGI", "setting": "HS 578T breast", "result": 0.804, "unit": "µM"},
      {"measurement": "TGI", "setting": "K-562 leukemia", "result": 0.616, "unit": "µM"},
      {"measurement": "TGI", "setting": "MCF7 breast", "result": "> 100", "unit": "µM"},
      {"measurement": "TGI", "setting": "NCI-H23 lung", "result": 0.24, "unit": "µM"},
      {"measurement": "TGI", "setting": "OVCAR-3 ovarian", "result": 0.135, "unit": "µM"},
      {"measurement": "TGI", "setting": "OVCAR-5 ovarian", "result": 1.35, "unit": "µM"},
      {"measurement": "TGI", "setting": "SF-295 CNS", "result": 0.255, "unit": "µM"},
      {"measurement": "TGI", "setting": "SK-MEL-28 melanoma", "result": 0.466, "unit": "µM"},
      {"measurement": "TGI", "setting": "SN12C renal", "result": 0.349, "unit": "µM"},
      {"measurement": "TGI", "setting": "SNB-75 CNS", "result": 0.566, "unit": "µM"},
      {"measurement": "TGI", "setting": "UACC-257 melanoma", "result": 0.216, "unit": "µM"},
      {"measurement": "TGI", "setting": "UO-31 renal", "result": 0.776, "unit": "µM"}
    ]},
    {"compound": "COc1cc(/C=C2\\C[C@H]3[C@@H]4CCC5=CC(=O)CC[C@]5(C)[C@H]4CC[C@]3(C)C2=O)cc(OC)c1OC", "values": [
      {"measurement": "TGI", "setting": "786-0 renal", "result": "> 100", "unit": "µM"},
      {"measurement": "TGI", "setting": "A498 renal", "result": "> 100", "unit": "µM"},
      {"measurement": "TGI", "setting": "BT-549 breast", "result": "> 95.4", "unit": "µM"},
      {"measurement": "TGI", "setting": "CCRF-CEM leukemia", "result": "> 100", "unit": "µM"},
      {"measurement": "TGI", "setting": "DU-145 prostate", "result": "> 100", "unit": "µM"},
      {"measurement": "TGI", "setting": "EKVX NSCLC", "result": "> 100", "unit": "µM"},
      {"measurement": "TGI", "setting": "HS 578T breast", "result": "> 100", "unit": "µM"},
      {"measurement": "TGI", "setting": "K-562 leukemia", "result": "> 100", "unit": "µM"},
      {"measurement": "TGI", "setting": "MCF7 breast", "result": "> 100", "unit": "µM"},
      {"measurement": "TGI", "setting": "NCI-H23 lung", "result": "> 100", "unit": "µM"},
      {"measurement": "TGI", "setting": "OVCAR-3 ovarian", "result": "> 49", "unit": "µM"},
      {"measurement": "TGI", "setting": "OVCAR-5 ovarian", "result": "> 100", "unit": "µM"},
      {"measurement": "TGI", "setting": "SF-295 CNS", "result": "> 100", "unit": "µM"},
      {"measurement": "TGI", "setting": "SK-MEL-28 melanoma", "result": "> 100", "unit": "µM"},
      {"measurement": "TGI", "setting": "SN12C renal", "result": "> 100", "unit": "µM"},
      {"measurement": "TGI", "setting": "SNB-75 CNS", "result": "> 89.4", "unit": "µM"},
      {"measurement": "TGI", "setting": "UACC-257 melanoma", "result": "> 84.2", "unit": "µM"},
      {"measurement": "TGI", "setting": "UO-31 renal", "result": "> 100", "unit": "µM"}
    ]},
    {"compound": "CC12CCCCC1=C(F)C(F)(F)S2", "note": "(centres undefined)", "values": [
      {"measurement": "TGI", "setting": "786-0 renal", "result": 45.9, "unit": "µM"},
      {"measurement": "TGI", "setting": "A498 renal", "result": "> 100", "unit": "µM"},
      {"measurement": "TGI", "setting": "BT-549 breast", "result": 43, "unit": "µM"},
      {"measurement": "TGI", "setting": "CCRF-CEM leukemia", "result": 22.7, "unit": "µM"},
      {"measurement": "TGI", "setting": "DU-145 prostate", "result": "> 100", "unit": "µM"},
      {"measurement": "TGI", "setting": "EKVX NSCLC", "result": "> 100", "unit": "µM"},
      {"measurement": "TGI", "setting": "HS 578T breast", "result": "> 80.7", "unit": "µM"},
      {"measurement": "TGI", "setting": "K-562 leukemia", "result": 59.2, "unit": "µM"},
      {"measurement": "TGI", "setting": "MCF7 breast", "result": "> 79.6", "unit": "µM"},
      {"measurement": "TGI", "setting": "NCI-H23 lung", "result": "> 100", "unit": "µM"},
      {"measurement": "TGI", "setting": "OVCAR-3 ovarian", "result": 48, "unit": "µM"},
      {"measurement": "TGI", "setting": "OVCAR-5 ovarian", "result": 97.7, "unit": "µM"},
      {"measurement": "TGI", "setting": "SF-295 CNS", "result": "> 71.4", "unit": "µM"},
      {"measurement": "TGI", "setting": "SK-MEL-28 melanoma", "result": 78.2, "unit": "µM"},
      {"measurement": "TGI", "setting": "SN12C renal", "result": "> 75.2", "unit": "µM"},
      {"measurement": "TGI", "setting": "SNB-75 CNS", "result": "> 100", "unit": "µM"},
      {"measurement": "TGI", "setting": "UACC-257 melanoma", "result": 51.6, "unit": "µM"},
      {"measurement": "TGI", "setting": "UO-31 renal", "result": 24.4, "unit": "µM"}
    ]}
  ]
}
